Assay results reported in US8853412B2, “Pyrrolidinone derivatives as GPR119 modulators for the treatment of diabetes, obesity, dyslipidemia and related disorders” (Sanofi, priority 2012, dated 2014).

Target: T1, human GPR119 (Homo sapiens, UniProt Q8TDV5)
T1 construct: expressed in transfected cells; host or cells: HEK-293 cell line stably expressing recombinant GPR119
T1 sequence (Q8TDV5 1-335): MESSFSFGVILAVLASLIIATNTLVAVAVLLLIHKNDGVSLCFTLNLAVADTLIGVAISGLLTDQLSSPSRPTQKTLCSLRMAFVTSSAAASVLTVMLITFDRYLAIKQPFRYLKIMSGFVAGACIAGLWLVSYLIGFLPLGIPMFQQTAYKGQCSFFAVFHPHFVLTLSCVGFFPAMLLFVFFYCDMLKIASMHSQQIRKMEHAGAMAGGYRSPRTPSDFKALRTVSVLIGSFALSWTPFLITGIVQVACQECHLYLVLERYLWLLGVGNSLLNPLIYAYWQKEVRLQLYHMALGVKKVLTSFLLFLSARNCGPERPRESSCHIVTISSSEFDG
Assay: Functional cellular assay measuring GPR119-mediated cAMP release (HTRF), HEK-293 cells stably expressing recombinant GPR119
Type: cell-based
Conditions: cell line expressing human GPR119; cAMP response, 30 minutes at room temperature
Description: Functional Cellular Assays Measuring GPR119-Mediated cAMP Release.
Compounds of the invention, which are agonists of GPR119, were characterized by functional assays measuring the cAMP response of HEK-293 cell lines stably expressing recombinant GPR119 from man, mouse or rat, or by using a hamster cell line HIT-T15 expressing GPR119 endogenously. The cAMP content was determined using a kit based on homogenous time-resolved fluorescence (HTRF) from Cisbio Corp. (cat. no. 62AM4PEC). For preparation, cells were split into T175 culture flasks and grown to near confluency in medium (DMEM/10% FCS for HEK-293 cells, and F-12K medium/10% horse serum/2.5% FCS for HIT-T15 cells, respectively). Medium was then removed and cells washed with PBS lacking calcium and magnesium ions, followed by proteinase treatment with accutase (Sigma-Aldrich, cat. no. A6964). Detached cells were washed and resuspended in assay buffer (1×HBSS; 20 mM HEPES, 0.1% BSA, 2 mM IBMX) and cellular density determined. They were then diluted to 400000 cells/mL and 25 μL-aliquots dispensed to the wells of 96-well plates. For measurement, 25 μL of test compound in assay buffer was added and incubated for 30 minutes at room temperature. After addition of HTRF reagents diluted in lysis buffer, the plates were incubated for 1 hour, followed by measuring the fluorescence ratio at 665 vs. 620 nm. Potency of the agonists was quantified by determining the concentrations that caused 50% of the maximal response/activation (EC50). See Table 10 for exemplary data obtained using the cell line expressing human GPR119.

| EC50 [nM] | SMILES |
| --- | --- |
| 9300 | O=C1CCc2c(F)cc(N3CC[C@@H](Oc4ccc(OCCN5CCCC5=O)nc4)C3=O)cc21 [Example 2-56] |
| 8 | O=C1CCc2c(F)cc(N3CC[C@@H](Oc4ccc(OCC5CC5)nc4)C3=O)cc21 [Example 1-11, (R)-3-(6-Cyclopropylmethoxy-pyridin-3-yloxy)-1-(7-fluoro-3-oxo-indan-5-yl)-pyrrolidin-2-one] |
| 33 | O=C1CCc2c(F)cc(N3CC[C@@H](Oc4ccc(OC5CCCOC5)nc4)C3=O)cc21 (some centres unmarked) [Example 2-78] |
| 29000 | CC(=O)c1ccc(O[C@@H]2CCN(c3cc(F)c4c(c3)C(=O)CC4)C2=O)cn1 [Example 3-15] |
| 281 | O=C1CCc2c(F)cc(N3CC[C@H](Oc4ccc(OCC5CC5)nc4)C3=O)cc21 [Example 3-12] |
| 5 | O=C1CCc2c(F)cc(N3CC[C@@H](Oc4ccc(OC5CCCC5)nc4)C3=O)cc21 [Example 2-63] |
| 3180 | O=C1CCc2c(F)cc(N3CC[C@@H](Oc4ccc(C(=O)N5CCCC5)nc4)C3=O)cc21 [Example 3-05] |
| 64 | O=C1CCc2ccc(N3CC[C@@H](Oc4ccc(OCCC5CC5)nc4)C3=O)cc21 [Example 1-09] |
| 40 | O=C1CCc2c(F)cc(N3CC[C@@H](Oc4ccnc(OCC5CC5)c4)C3=O)cc21 [Example 5-03] |
| 22 | O=C1CCc2c(F)cc(N3CC[C@@H](Oc4ccnc(OCCC5CC5)c4)C3=O)cc21 [Example 5-01] |
| 95 | O=C1CCc2c(F)cc(N3CC[C@@H](Oc4ccc(OCC5CCOC5)nc4)C3=O)cc21 (some centres unmarked) [Example 2-75] |
| 86 | O=C1CCc2c(F)cc(N3CC[C@@H](Oc4ccc(OC(F)(F)F)cc4)C3=O)cc21 [Example 3-01] |
| 70 | CCSc1ccc(O[C@@H]2CCN(c3cc(F)c4c(c3)C(=O)CC4)C2=O)cn1 [Example 1-15] |
| 99 | CC1(COc2ccc(O[C@@H]3CCN(c4cc(F)c5c(c4)C(=O)CC5)C3=O)cn2)COC1 [Example 2-12] |
| 138 | O=C(OCC1CC1)c1ccc(O[C@@H]2CCN(c3cc(F)c4c(c3)C(=O)CC4)C2=O)cn1 [Example 3-04] |
| 32 | CCCCCOc1cc(O[C@@H]2CCN(c3cc(F)c4c(c3)C(=O)CC4)C2=O)ccn1 [Example 5-06] |
| 141 | CC(C)c1noc(-c2ccc(O[C@@H]3CCN(c4cc(F)c5c(c4)C(=O)CC5)C3=O)cn2)n1 [Example 3-02] |
| 19 | O=C1CCc2c(F)cc(N3CC[C@@H](Oc4ccc(OCC5CC5)nc4)C3=O)c(F)c21 [Example 9-01] |
| 29 | O=C1CCc2c(F)cc(N3CC[C@@H](Oc4ccc(OC5CCCOC5)nc4)C3=O)cc21 (some centres unmarked) [Example 2-11] |
| 368 | CSc1ccc(O[C@@H]2CCN(c3cc(F)c4c(c3)C(=O)CC4)C2=O)cn1 [Example 1-13] |
| 64 | O=C1CCc2c(F)cc(N3CC[C@@H](Oc4ccc(OCCF)nc4)C3=O)cc21 [Example 2-48] |

| EC50 [nM] | SMILES |
| --- | --- |
| 9 | CC(C)CCOc1ccc(O[C@@H]2CCN(c3cc(F)c4c(c3)C(=O)CC4)C2=O)cn1 [Example 2-22] |
| 11 | O=C1CCc2c(F)cc(N3CC[C@@H](Oc4ccc(SCC5CC5)nc4)C3=O)cc21 [Example 3-17] |
| 7530 | CC(C)N(CCOc1ccc(O[C@@H]2CCN(c3cc(F)c4c(c3)C(=O)CC4)C2=O)cn1)C(C)C [Example 2-58] |
| 3010 | CC(=O)N1CCCC(Oc2ccc(O[C@@H]3CCN(c4cc(F)c5c(c4)C(=O)CC5)C3=O)cn2)C1 (some centres unmarked) [Example 2-70] |
| 65 | CCCOc1cc(O[C@@H]2CCN(c3cc(F)c4c(c3)C(=O)CC4)C2=O)ccn1 [Example 5-05] |
| 1470 | O=C1CCc2c(F)cc(N3CC[C@@H](Oc4ccc(OCc5cccnc5)nc4)C3=O)cc21 [Example 2-31] |
| 103 | CSCCCOc1ccc(O[C@@H]2CCN(c3cc(F)c4c(c3)C(=O)CC4)C2=O)cn1 [Example 2-40] |
| 1190 | O=C1CCc2c(F)cc(N3CC[C@@H](Oc4ccc(OCc5cnccn5)nc4)C3=O)cc21 [Example 2-52] |
| 25 | CC(C)CC(C)Oc1ccc(O[C@@H]2CCN(c3cc(F)c4c(c3)C(=O)CC4)C2=O)cn1 (some centres unmarked) [Example 2-45] |
| 28 | O=C1CCc2c(F)cc(N3CC[C@@H](Oc4ccnc(OC5CCC5)c4)C3=O)cc21 [Example 5-10] |
| 16 | CC(Oc1ccc(O[C@@H]2CCN(c3cc(F)c4c(c3)C(=O)CC4)C2=O)cn1)C1CC1 (some centres unmarked) [Example 2-09] |
| 558 | CCCC[S+]([O-])c1ccc(O[C@@H]2CCN(c3cc(F)c4c(c3)C(=O)CC4)C2=O)cn1 (some centres unmarked) [Example 3-08] |
| 978 | CCCCN(C)C(=O)c1ccc(O[C@@H]2CCN(c3cc(F)c4c(c3)C(=O)CC4)C2=O)cn1 [Example 3-06] |
| 16 | O=C1CCc2c(F)cc(N3CC[C@@H](Oc4ccc(OC5CCC5)nc4)C3=O)cc21 [Example 2-72] |
| 45 | CCOc1ncc(O[C@@H]2CCN(c3cc(F)c4c(c3)C(=O)CC4)C2=O)cc1F [Example 3-18] |
| 2220 | CN1CCC[C@H]1COc1ccc(O[C@@H]2CCN(c3cc(F)c4c(c3)C(=O)CC4)C2=O)cn1 [Example 2-59] |
| 15000 | O=C1CCc2c(F)cc(N3CC[C@@H](Oc4ccc(OCCN5CCCC5)nc4)C3=O)cc21 [Example 2-67] |
| 9 | O=C1CCc2c(F)cc(N3CC[C@@H](Oc4ccc(OCC5CCCC5)nc4)C3=O)cc21 [Example 2-57] |
| 283 | Cc1cc(N2CC[C@@H](Oc3ccc(OCC4CC4)nc3)C2=O)cc2c1CCC2=O [Example 4-02] |
| 138 | CCC(COC)Oc1ccc(O[C@@H]2CCN(c3cc(F)c4c(c3)C(=O)CC4)C2=O)cn1 (some centres unmarked) [Example 2-47] |
| 12 | O=C1CCc2c(F)cc(N3CC[C@@H](Oc4cnc(OCC5CC5)c(Br)c4)C3=O)cc21 [Example 3-19] |

| EC50 [nM] | SMILES |
| --- | --- |
| 109 | CCCc1cc(O[C@@H]2CCN(c3cc(F)c4c(c3)C(=O)CC4)C2=O)cnc1OCC1CC1 [Example 8-04] |
| 44200 | O=C1CCc2c(F)cc(N3CC[C@@H](Oc4ccc(OCCn5ccnc5)nc4)C3=O)cc21 [Example 2-36] |
| 21 | CCOCCCOc1ccc(O[C@@H]2CCN(c3cc(F)c4c(c3)C(=O)CC4)C2=O)cn1 [Example 2-53] |
| 24300 | Cn1ccnc1COc1ccc(O[C@@H]2CCN(c3cc(F)c4c(c3)C(=O)CC4)C2=O)cn1 [Example 2-37] |
| 1980 | CCOc1ccc(O[C@H]2CCN(c3cc(F)c4c(c3)C(=O)CC4)C2=O)cn1 [Example 3-21] |
| 64 | COC(=O)c1cc(O[C@@H]2CCN(c3cc(F)c4c(c3)C(=O)CC4)C2=O)cnc1OCC1CC1 [Example 8-01] |
| 216 | O=C1CCc2c(F)cc(N3CC[C@@H](Oc4ccc(Oc5ccc(F)cn5)nc4)C3=O)cc21 [Example 6-01] |
| 169 | CCOc1cc(O[C@@H]2CCN(c3cc(F)c4c(c3)C(=O)CC4)C2=O)ccn1 [Example 5-04] |
| 16300 | O=C1CC[C@@H](COc2ccc(O[C@@H]3CCN(c4cc(F)c5c(c4)C(=O)CC5)C3=O)cn2)N1 [Example 2-30] |
| 287 | O=C1CCc2c(Br)cc(N3CC[C@@H](Oc4ccc(OCC5CC5)nc4)C3=O)cc21 [Example 1-18] |
| 26 | O=C1CCc2c(F)cc(N3CC[C@@H](Oc4ccc(OCC(F)F)nc4)C3=O)cc21 [Example 2-35] |
| 45 | O=C1CCc2c(F)cc(N3CC[C@@H](Oc4ccc(OC5CCOCC5)nc4)C3=O)cc21 [Example 2-07, (R)-1-(7-Fluoro-3-oxo-indan-5-yl)-3-[6-(tetrahydro-pyran-4-yloxy)-pyridin-3-yloxy]-pyrrolidin-2-one] |
| 94 | CCC(Oc1ccc(O[C@@H]2CCN(c3cc(F)c4c(c3)C(=O)CC4)C2=O)cn1)C(C)C (some centres unmarked) [Example 2-49] |
| 19 | O=C1CCc2c(F)cc(N3CC[C@@H](Oc4ccc(OC5CC5)nc4)C3=O)cc21 [Example 3-13, (R)-3-(6-Cyclopropoxy-pyridin-3-yloxy)-1-(7-fluoro-3-oxo-indan-5-yl)-pyrrolidin-2-one] |
| 11 | CCCCSc1ccc(O[C@@H]2CCN(c3cc(F)c4c(c3)C(=O)CC4)C2=O)cn1 [Example 3-07] |
| 97 | N#Cc1cc(N2CC[C@@H](Oc3ccc(OCC4CC4)nc3)C2=O)cc2c1CCC2=O [Example 4-03] |
| 277 | CCOCCOc1ccc(O[C@@H]2CCN(c3cc(F)c4c(c3)C(=O)CC4)C2=O)cn1 [Example 2-27] |
| 190 | CCCCOc1cc(O[C@@H]2CCN(c3cc(F)c4c(c3)C(=O)CC4)C2=O)ccn1 [Example 5-02] |
| 699 | O=C1CCCc2ccc(N3CC[C@@H](Oc4ccc(OCCC5CC5)nc4)C3=O)cc21 [Example 1-10] |
| 33 | CC(C)=CCOc1ccc(O[C@@H]2CCN(c3cc(F)c4c(c3)C(=O)CC4)C2=O)cn1 [Example 2-20] |
